Calls of active or inactive are those of the source. The calls are words filed in the database; no cut-off is given here.
Experiments:
[1] = biological target: T1, Sodium-dependent dopamine transporter (Homo sapiens, UniProt Q01959); assay: biochemical; assay type: cell-based, HEK293
Description: Displacement of [125I]RTI55 from human DAT expressed in HEK cells

[2] = biological target: T1, Sodium-dependent dopamine transporter; assay: Inhibition of [3H]dopamine reuptake at human DAT expressed in HEK cells; assay type: cell-based, HEK293
[3] = biological target: T2, Sodium-dependent noradrenaline transporter (Homo sapiens, UniProt P23975); assay: Inhibition of [3H]norepinephrine reuptake at human NET expressed in HEK cells; assay type: cell-based, HEK293
[4] = biological target: T3, Sodium-dependent serotonin transporter (Homo sapiens, UniProt P31645); assay: Inhibition of [3H]serotonin reuptake at human SERT expressed in HEK cells; assay type: cell-based, HEK293
[5] = biological target: T3, Sodium-dependent serotonin transporter; assay: biochemical; assay type: cell-based, HEK293
Description: Displacement of [125I]RTI55 from human SERT expressed in HEK cells

[6] = biological target: T2, Sodium-dependent noradrenaline transporter; assay: biochemical; assay type: cell-based, HEK293
Description: Displacement of [125I]RTI55 from human NET expressed in HEK cells

[7] = tested on: Mus musculus; assay: Antidepressant activity in BALB/c mouse assessed as decrease in duration of immobility at 10 mg/kg, ip pretreated 30 mins before test by forced swimming test; assay type: functional, organism-based; set-up: dose 10 mg/kg
[8] = tested on: Mus musculus; assay: Antidepressant activity in BALB/c mouse assessed as change in duration of immobility at 20 mg/kg, ip pretreated 30 mins before test by forced swimming test; assay type: functional, organism-based; set-up: dose 20 mg/kg
[9] = Metabolic stability assessed as half life in mouse liver microsomes; assay type: ADME, Microsome
[10] = Metabolic stability assessed as half life in rat liver microsomes; assay type: ADME, Microsome
[11] = tested on: Mus musculus; assay: Antidepressant activity in ICR mouse assessed as change in duration of immobility at 10 mg/kg, ip pretreated 30 mins before test by forced swimming test; assay type: functional, organism-based; set-up: dose 10 mg/kg

T2 sequence (P23975 whole entry): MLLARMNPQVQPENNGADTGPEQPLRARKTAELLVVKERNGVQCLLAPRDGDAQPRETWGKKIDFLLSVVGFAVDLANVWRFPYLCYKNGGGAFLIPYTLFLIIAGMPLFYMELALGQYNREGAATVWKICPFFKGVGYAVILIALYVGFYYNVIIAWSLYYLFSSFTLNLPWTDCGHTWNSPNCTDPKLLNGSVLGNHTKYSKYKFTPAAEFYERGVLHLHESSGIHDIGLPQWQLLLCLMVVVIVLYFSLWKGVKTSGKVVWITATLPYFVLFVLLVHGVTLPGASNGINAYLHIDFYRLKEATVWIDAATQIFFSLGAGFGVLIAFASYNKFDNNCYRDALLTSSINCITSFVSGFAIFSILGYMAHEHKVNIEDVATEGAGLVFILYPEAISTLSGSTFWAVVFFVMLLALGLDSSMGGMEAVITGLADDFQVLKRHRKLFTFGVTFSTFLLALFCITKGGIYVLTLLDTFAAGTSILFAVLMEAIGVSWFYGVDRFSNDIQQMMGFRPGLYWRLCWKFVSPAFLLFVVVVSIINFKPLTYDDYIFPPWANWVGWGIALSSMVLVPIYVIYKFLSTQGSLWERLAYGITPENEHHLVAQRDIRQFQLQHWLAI
T1 sequence (Q01959 whole entry): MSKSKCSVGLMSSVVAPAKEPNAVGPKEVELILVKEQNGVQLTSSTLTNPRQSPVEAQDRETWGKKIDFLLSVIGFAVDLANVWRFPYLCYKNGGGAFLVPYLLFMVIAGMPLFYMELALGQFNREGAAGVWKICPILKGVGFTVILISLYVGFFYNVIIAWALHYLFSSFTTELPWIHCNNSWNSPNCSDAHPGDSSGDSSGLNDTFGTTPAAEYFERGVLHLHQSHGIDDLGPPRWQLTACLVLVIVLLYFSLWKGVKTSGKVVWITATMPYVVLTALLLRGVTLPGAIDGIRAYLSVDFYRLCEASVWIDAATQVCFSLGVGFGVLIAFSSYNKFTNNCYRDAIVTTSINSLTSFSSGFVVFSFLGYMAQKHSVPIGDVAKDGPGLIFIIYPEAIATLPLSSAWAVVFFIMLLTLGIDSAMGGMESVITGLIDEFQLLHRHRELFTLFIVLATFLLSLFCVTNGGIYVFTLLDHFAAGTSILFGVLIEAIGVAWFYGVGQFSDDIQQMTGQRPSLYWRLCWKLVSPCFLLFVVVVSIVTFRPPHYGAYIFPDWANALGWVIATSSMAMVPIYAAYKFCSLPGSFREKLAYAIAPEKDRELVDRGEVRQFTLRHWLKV
T3 sequence (P31645 whole entry): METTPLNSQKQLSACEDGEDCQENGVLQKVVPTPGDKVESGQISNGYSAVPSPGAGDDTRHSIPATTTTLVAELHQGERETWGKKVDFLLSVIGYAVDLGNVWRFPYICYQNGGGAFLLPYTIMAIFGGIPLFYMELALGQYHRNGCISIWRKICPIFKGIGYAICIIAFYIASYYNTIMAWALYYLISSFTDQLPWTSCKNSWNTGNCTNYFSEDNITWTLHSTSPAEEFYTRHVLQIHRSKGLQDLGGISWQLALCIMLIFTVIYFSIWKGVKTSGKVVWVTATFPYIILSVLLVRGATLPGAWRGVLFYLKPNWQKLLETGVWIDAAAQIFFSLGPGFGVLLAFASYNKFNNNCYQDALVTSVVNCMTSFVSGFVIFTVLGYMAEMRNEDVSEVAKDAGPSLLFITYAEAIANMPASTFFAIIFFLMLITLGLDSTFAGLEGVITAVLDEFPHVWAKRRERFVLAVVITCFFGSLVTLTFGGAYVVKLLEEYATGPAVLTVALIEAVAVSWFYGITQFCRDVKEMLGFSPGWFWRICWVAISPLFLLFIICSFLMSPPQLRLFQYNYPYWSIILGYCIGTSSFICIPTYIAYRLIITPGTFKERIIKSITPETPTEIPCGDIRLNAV

SMILES: NCC1CCC(CCc2cccnc2)O1 (configuration not stated)
- Ki [1]: > 10 µM
- IC50 [2]: > 10 µM
- IC50 [3]: > 10 µM
- IC50 [4]: 2.72 µM

SMILES: COc1ccc(F)cc1CCC[C@H]1CC[C@H](CN)O1 (relative stereo)
- IC50 [2]: 7.62 µM
- IC50 [4]: 0.0021 µM
- Ki [5]: 0.0008 µM

SMILES: NCC1CCC(CCc2c(F)c(F)c(F)c(F)c2F)O1 (configuration not stated)
- Ki [1]: > 10 µM

SMILES: NCC1CCC(c2ccc(Br)cc2)O1 (configuration not stated)
- Ki [6]: > 10 µM

SMILES: COc1ccc(C2CCC(CN)O2)cc1 (configuration not stated)
- Ki [1]: > 10 µM

SMILES: COc1ccc(F)cc1[C@H]1CC[C@H](CN)O1 (relative stereo)
- Ki [1]: > 10 µM
- IC50 [2]: > 10 µM

SMILES: COc1ccc(F)cc1CCCC[C@H]1CC[C@H](CN)O1 (relative stereo)
- Ki [1]: 3.87 µM
- IC50 [2]: 16.5 µM
- IC50 [4]: 0.084 µM
- Ki [5]: 0.004 µM

SMILES: NCC1CCC(CCc2cccc3ccccc23)O1 (configuration not stated)
- Ki [1]: > 10 µM
- IC50 [2]: > 10 µM
- Ki [6]: > 10 µM
- Ki [5]: 0.018 µM

SMILES: COc1ccc(F)cc1[C@H]1CC[C@H](CCN)O1
- Ki [1]: 32.9 µM
- IC50 [2]: > 10 µM

SMILES: COc1ccc(CCC2CCC(CCN)O2)c2ccccc12 (configuration not stated)
- Ki [1]: > 10 µM
- Ki [6]: > 10 µM

SMILES: COc1ccc(F)cc1CCCC1CCC(CCN)O1 (mixture of isomers)
- Activity [7]: inactive

SMILES: NCCC1CCC(Cc2ccccc2)O1 (configuration not stated)
- Ki [1]: > 10 µM
- Ki [6]: > 10 µM

SMILES: COc1ccc(F)cc1[C@@H]1CC[C@H](CCN)O1 (relative stereo)
- Ki [1]: > 10 µM
- IC50 [2]: > 10 µM

SMILES: CC(C)(C)c1ccc(C2CCC(CN)O2)cc1 (configuration not stated)
- Ki [1]: > 10 µM
- Ki [5]: > 10 µM

SMILES: CNCCC(Oc1ccc(C(F)(F)F)cc1)c1ccccc1 (configuration not stated)
- Activity [8]: inactive
- Activity [7]: Active

SMILES: COc1ccc(F)cc1C[C@@H]1CC[C@H](CN)O1 (relative stereo)
- IC50 [2]: 18.7 µM

SMILES: CNCCC1CCC(CCc2cc(F)ccc2OC)O1 (configuration not stated)
- half-life [9]: 58.5 min
- half-life [10]: 129 min

SMILES: COc1ccc2ccccc2c1CCC1CCC(CCN)O1 (configuration not stated)
- Ki [1]: > 10 µM
- Ki [6]: > 10 µM

SMILES: COc1ccc(F)cc1C[C@H]1CC[C@H](CN)O1 (relative stereo)
- IC50 [2]: 28.9 µM

SMILES: NCC1CCC(c2ccc3ccccc3c2)O1 (configuration not stated)
- IC50 [4]: 0.004 µM
- Ki [6]: > 10 µM

SMILES: COc1ccc(F)cc1C[C@@H]1CC[C@H](CCN)O1 (relative stereo)
- IC50 [3]: 1.86 µM

SMILES: COc1ccc(F)cc1CCC[C@@H]1CC[C@H](CN)O1 (relative stereo)
- Ki [1]: 4.58 µM
- IC50 [2]: 6.29 µM
- IC50 [4]: 0.0026 µM
- Ki [5]: 0.0028 µM

SMILES: NCCC1CCC(c2ccco2)O1 (configuration not stated)
- Ki [1]: > 10 µM
- IC50 [2]: > 10 µM
- IC50 [3]: > 10 µM
- IC50 [4]: > 10 µM
- Ki [6]: > 10 µM
- Ki [5]: > 10 µM

SMILES: COc1ccc(F)cc1CCC1CCC(CCN)O1 (configuration not stated)
- Activity [11]: inactive
- half-life [9]: 56 min

SMILES: COc1ccc(F)cc1CC[C@H]1CC[C@H](CN)O1
- Ki [1]: 14.5 µM

SMILES: COc1ccc(F)cc1C1CCC(CN)O1 (configuration not stated)
- IC50 [2]: > 10 µM

SMILES: COc1ccc(F)cc1C[C@H]1CC[C@H](CCN)O1 (relative stereo)
- IC50 [3]: 1.77 µM

Reference: ChEMBL document CHEMBL1152751, “2,5-Disubstituted tetrahydrofurans as selective serotonin re-uptake inhibitors” (Bioorg Med Chem, 2009)
